{
  "source": "PubChem BioAssay AID2060910",
  "about": "(Molecular Pharmacology Branch, DTP, NCI, 2025);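 note: spheroids exposed to compound for 7 days before readout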;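 for viability, T/C: 100% = DMSO vehicle control wells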",
  "tested_on": "242566-281-R-J2-PDC complex spheroid viability",
  "assay": "Anticancer human tumor 242566-281-R-J2-PDC patient-derived pancreatic carcinoma cell line growth inhibition [RAS]",
  "details": "for IC50: curve of first compound; for viability, T/C: stronger effect = lower value",
  "method_in_brief": "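Tumour cells grown as complex spheroids with HUVEC endothelial cells and mesenchymal stem cells, treated with RAS pathway inhibitor combinations. Each agent spans half-log steps from near clinical Cmax, or 10 microM where Cmax is unknown.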",
  "data": [
    {"smiles": "Nc1ccn(C2OC(CO)C(O)C2(F)F)c(=O)n1", "note": "(configuration not stated) + CCn1c(-c2cccnc2C(C)OC)c2c3cc(ccc31)N1CCOC(CC(NC(=O)C(C(C)C)N(C)C(=O)C3(F)CCN(C(=O)C#CC(C)(C)N(C)C)CC3)C(=O)N3CCCC(N3)C(=O)OCC(C)(C)C2)C1", "values": [
      {"measurement": "IC50", "setting": "second compound 0.000949 µM", "value": 53, "unit": "nM"},
      {"measurement": "IC50", "setting": "second compound 0.003 µM", "value": 72.2, "unit": "nM"},
      {"measurement": "IC50", "setting": "second compound 0.00949 µM", "value": 90.1, "unit": "nM"},
      {"measurement": "IC50", "setting": "second compound 0.03 µM", "value": 67.9, "unit": "nM"},
      {"measurement": "IC50", "setting": "second compound 0.0949 µM", "value": 75.3, "unit": "nM"},
      {"measurement": "IC50", "setting": "second compound 0.3 µM", "value": 50.5, "unit": "nM"},
      {"measurement": "viability, T/C", "setting": "second compound 0.000949 µM, first compound 0.00316 µM", "value": 114, "unit": "%"},
      {"measurement": "viability, T/C", "setting": "second compound 0.000949 µM, first compound 0.01 µM", "value": 88, "unit": "%"},
      {"measurement": "viability, T/C", "setting": "second compound 0.000949 µM, first compound 0.0316 µM", "value": 50.5, "unit": "%"},
      {"measurement": "viability, T/C", "setting": "second compound 0.000949 µM, first compound 0.1 µM", "value": 45.3, "unit": "%"},
      {"measurement": "viability, T/C", "setting": "second compound 0.000949 µM, first compound 0.316 µM", "value": 23.3, "unit": "%"},
      {"measurement": "viability, T/C", "setting": "second compound 0.000949 µM, first compound 1 µM", "value": 11.2, "unit": "%"},
      {"measurement": "viability, T/C", "setting": "second compound 0.003 µM, first compound 0.00316 µM", "value": 104, "unit": "%"},
      {"measurement": "viability, T/C", "setting": "second compound 0.003 µM, first compound 0.01 µM", "value": 87.2, "unit": "%"},
      {"measurement": "viability, T/C", "setting": "second compound 0.003 µM, first compound 0.0316 µM", "value": 71.2, "unit": "%"},
      {"measurement": "viability, T/C", "setting": "second compound 0.003 µM, first compound 0.1 µM", "value": 42, "unit": "%"},
      {"measurement": "viability, T/C", "setting": "second compound 0.003 µM, first compound 0.316 µM", "value": 21.2, "unit": "%"},
      {"measurement": "viability, T/C", "setting": "second compound 0.003 µM, first compound 1 µM", "value": 11.6, "unit": "%"},
      {"measurement": "viability, T/C", "setting": "second compound 0.00949 µM, first compound 0.00316 µM", "value": 104, "unit": "%"},
      {"measurement": "viability, T/C", "setting": "second compound 0.00949 µM, first compound 0.01 µM", "value": 92.3, "unit": "%"},
      {"measurement": "viability, T/C", "setting": "second compound 0.00949 µM, first compound 0.0316 µM", "value": 81.2, "unit": "%"},
      {"measurement": "viability, T/C", "setting": "second compound 0.00949 µM, first compound 0.1 µM", "value": 46.6, "unit": "%"},
      {"measurement": "viability, T/C", "setting": "second compound 0.00949 µM, first compound 0.316 µM", "value": 21.6, "unit": "%"},
      {"measurement": "viability, T/C", "setting": "second compound 0.00949 µM, first compound 1 µM", "value": 13.2, "unit": "%"},
      {"measurement": "viability, T/C", "setting": "second compound 0.03 µM, first compound 0.00316 µM", "value": 101, "unit": "%"},
      {"measurement": "viability, T/C", "setting": "second compound 0.03 µM, first compound 0.01 µM", "value": 96, "unit": "%"},
      {"measurement": "viability, T/C", "setting": "second compound 0.03 µM, first compound 0.0316 µM", "value": 68.5, "unit": "%"},
      {"measurement": "viability, T/C", "setting": "second compound 0.03 µM, first compound 0.1 µM", "value": 41.9, "unit": "%"},
      {"measurement": "viability, T/C", "setting": "second compound 0.03 µM, first compound 0.316 µM", "value": 16.4, "unit": "%"},
      {"measurement": "viability, T/C", "setting": "second compound 0.03 µM, first compound 1 µM", "value": 12, "unit": "%"},
      {"measurement": "viability, T/C", "setting": "second compound 0.0949 µM, first compound 0.00316 µM", "value": 86.4, "unit": "%"},
      {"measurement": "viability, T/C", "setting": "second compound 0.0949 µM, first compound 0.01 µM", "value": 87.1, "unit": "%"},
      {"measurement": "viability, T/C", "setting": "second compound 0.0949 µM, first compound 0.0316 µM", "value": 64.7, "unit": "%"},
      {"measurement": "viability, T/C", "setting": "second compound 0.0949 µM, first compound 0.1 µM", "value": 49.2, "unit": "%"},
      {"measurement": "viability, T/C", "setting": "second compound 0.0949 µM, first compound 0.316 µM", "value": 14.1, "unit": "%"},
      {"measurement": "viability, T/C", "setting": "second compound 0.0949 µM, first compound 1 µM", "value": 13.4, "unit": "%"},
      {"measurement": "viability, T/C", "setting": "second compound 0.3 µM, first compound 0.00316 µM", "value": 91.7, "unit": "%"},
      {"measurement": "viability, T/C", "setting": "second compound 0.3 µM, first compound 0.01 µM", "value": 81.8, "unit": "%"},
      {"measurement": "viability, T/C", "setting": "second compound 0.3 µM, first compound 0.0316 µM", "value": 65.6, "unit": "%"},
      {"measurement": "viability, T/C", "setting": "second compound 0.3 µM, first compound 0.1 µM", "value": 28.4, "unit": "%"},
      {"measurement": "viability, T/C", "setting": "second compound 0.3 µM, first compound 0.316 µM", "value": 15.5, "unit": "%"},
      {"measurement": "viability, T/C", "setting": "second compound 0.3 µM, first compound 1 µM", "value": 10.1, "unit": "%"}
    ]}
  ]
}
